Six molecules from patent US6887895B2, “Pseudolaric acid-B derivatives, their preparation and pharmaceutical compositions” (Shanghai Institute of Materia Medica Chinese Academy of …, priority 2001, dated 2005) can be followed below.

Data set [1] has as its system A549 human lung adenocarcinoma cells. As to the kind of experiment: A549 proliferation assay (SRB). Type of data set: cell-based. The method, then: (§1) To evaluate the anti-tumor pharmacological activity of the compounds of the invention, the anti-proliferation activity thereof was assayed using P388 murin leukemia cells and A549 human lung adenocarcinoma cells; the anti-angiogenic activity, a newer target of antitumor, was measured using human microvascular endothelial cells (HMEC). Pseudolarix acid-B and hydroxycamptothecin were used as reference compounds in the evaluation.
(§2) P388, A549 and HMEC Proliferation Assay
(§3) Materials: DMEM was purchased from Gibco (Life Technologies, Grand Island, N.Y., USA). Sulforodamine B (SRB) and MTT were obtained from Sigma; TCA […] and Tris base buffer were analytical pure products made in China.
(§4) SRB assay: Tumor (A549 and HMEC) cells in logarithmic growth were plated in DMEM media in the wells of a 96-well plate (5×10^3 cells/90 μL/well) and serial dilutions of the compounds (10 μL) prepared in medium were added. Experiments at each concentration of compounds were performed in triplicate with controls of normal saline and cell-free withered wells. The plates were incubated at 37° C., 5% CO2, for 72 hr. The media were decanted and cells were fixed with cold (4° C.) 10% trichloroacetic acid, followed by incubation at 4° C. for 1 hr. Then plates were washed with deionised water five times and allowed to air dry and stained by addition of 100 μL/well SRB solution [0.4% SRB (Sigma) in 1% acetic acid (W/V)] for 15 min. Following staining, plates were quickly washed five times with 1% acetic acid to remove unbound dye, and allowed to air dry. Bound dye was solubilized with Tris buffer (pH 10.5) prior to reading plates. The OD was measured with a multiwell spectrophotometer (VERSAmax, Molecular Devices, USA) at a wavelength of 520 nm.
(§5) The rate of inhibition on the growth of cancer cells was calculated by the formula: Rate of growth inhibition=[1−(A520 treated/A520 control)]×100%
(§6) The result was also expressed as IC50 (the drug concentration reducing by 50% the absorbance in treated cells, with respect to untreated cells) that was calculated by Logit method. The mean IC50 was determined according to the data from three independent tests.

For data set [2], the system named is P388 murin leukemia cells. As to the kind of experiment: P388 proliferation assay (MTT). Type of data set: cell-based, murine. How it is done: as §1, §2, §3
MTT assay: P388 cells were seeded at a density of 1.5×10^5/ml into wells of 96-well plates and incubated with complete medium. After 24 hr, serial dilutions of the compounds (10 μL) prepared in medium were added. Experiments at each concentration of compounds were performed in triplicate with controls of cell-free withered wells and cell-free withered wells at corresponding concentration of compounds, if it is colored. The plates were incubated at 37° C., 5% CO2, for 48 hr. Then, 20 μL aliquots of MTT (Sigma) solution (5 mg/mL) in saline were added directly to all the appropriate wells. The culture was continuously incubated for 4 hr. Then 50 μL “triplex solution” (10% SDS-5% isobutanol- 0.01M HCl) was added into each well. After the plates were incubated at 37° C. overnight, the values of absorbance at 520 nm were measured by using a plate reader (VERSA Max, Molecular Devices).
as §5, §6

The subject of a further data set is Trichophyton rubrum. As to the kind of experiment: Antifungal screening, agar diluting method. The format is cell-based. The text has this:
Screening on Antifungal Activities
The action on Trichophyton rubrum was observed using agar diluting method. The drug concentration in the Petridish on which no growth of fungus observed is the minimun inhibition concentration.

A short description of data set [3]: Body weight of Sarcoma 180-bearing mice under treatment. The format is in vivo, Kunming strain female mice. How it is done: (§7) 30 Kunming strain female mice weighing 18-22 g were used. Suspensions of well grown Sarcoma 180 cell were implanted subcutaneously into the right axilla region of the mice, about 4.5-5×10^6 cells/mouse. The animals were grouped randomly 24 hours after the implantation. Daily treatment with drugs or normal saline commenced 1 day after implantation of S-180 cells. Mice were administered by i.p. injection with vehicle or compounds once a day for consecutive 6 days. All the mice were euthanized after the last administration. The mice and the tumors were weighed. The average weights of tumors of each group were calculated and rate of inhibition of tumor growth in vivo was calculated using the following formula: [formula]

Data set [4] relates to human microvascular endothelial cells (HMEC). As to the kind of experiment: HMEC proliferation assay (SRB), anti-angiogenic activity. Type of data set: cell-based. The method, then:
as §1, §2, §3, §4, §5
The result was also expressed as IC50 (the drug concentration reducing by 50% the absorbance in treated cells, with respect to untreated cells) that was calculated by Logit method. […]

Another data set concerns Candida albicans. As to the kind of experiment: Antifungal screening, liquid diluting method. The format is cell-based. The text has this:
Screening on Antifungal Activities The action on Candida albicans was observed using liquid diluting method. The drug concentration in the tube in which no growth of fungus observed is the minimun inhibition concentration.

The test system of a further data set is Sarcoma 180 cell. As to the kind of experiment: Sarcoma 180 tumor growth inhibition in mice. Particulars: for Tumor weight: S-180 mice; for Inhibition %: tumor growth vs control. The format is in vivo, Kunming strain female mice. How it is done: as §7
The mark [5] stands for this setting: Homo sapiens, A549 cells, SRB, 72 hr, read-out: IC50.
[6] abbreviates: Mus musculus, P388 cells, MTT, 48 hr, read-out: IC50.
The mark [7] stands for this setting: 5 mg/kg i.p. once a day for 6 days.
Where [8] appears, read: 10 mg/kg i.p. once a day for 6 days.
Where [9] appears, read: 15 mg/kg i.p. once a day for 6 days.

Values after ≈ are worked out from the molar mass of the structure shown. Where two headings read alike, the source gives them in different places. Some results are limits rather than exact numbers.

Consider `COC(=O)C1=CC[C@]23CC[C@H](C(C)(/C=C/C=C(\C)C(=O)Nc4cccc(O)c4)OC2=O)[C@]3(OC(C)=O)CC1` (stereo partly shown) [PEX-15Y], for which the IC50 (commonly the concentration at which inhibition is half-maximal) in data set [1] (setting [5]) is 150 nM.
Regarding `CC(=O)O[C@@]12CCC(C(=O)OCC3CCCCC3)=CC[C@@]13CC[C@@H]2C(C)(/C=C/C=C(\C)C(=O)O)OC3=O` (stereo partly shown) [PEX-31Y], the IC50 in data set [1] (Homo sapiens, A549, 72 h) is < 0.1 nM; in data set [2] (Mus musculus, P388, 48 h) it was < 0.1 nM.
For the molecule `COC(=O)C1=CC[C@]23CC[C@H](C(C)(/C=C/C=C(\C)C(=O)O)OC2=O)[C@]3(OC(=O)Cc2ccc(Cl)cc2)CC1` (stereo partly shown) [PEX-24Y], the IC50 is 69 nM in data set [1] (setting [5]) and 0.26 nM in data set [2] (setting [6]).
As for `CC(=O)O[C@@]12CCC(C(=O)OCc3ccco3)=CC[C@@]13CC[C@@H]2C(C)(/C=C/C=C(\C)C(=O)O)OC3=O` (stereo partly shown) [PEX-25Y], the MIC in the data set with Trichophyton rubrum (Trichophyton rubrum, read-out: MIC (μg/ml) (Trichophyton rubrum)) is 12.5 µg/mL (≈ 25.1 µM); in the data set on Candida albicans (Candida albicans, read-out: MIC (μg/ml) (Candida albicans)), 6.25 µg/mL (≈ 12.5 µM). The half-inhibitory concentration (IC50) in data set [1] (setting [5]) is 55 nM; in data set [2] (setting [6]) it was < 0.1 nM; in data set [4] (Homo sapiens, HMEC cells, SRB, 72 hr, read-out: IC50), 1 nM. The “Body weight (g) At last” value in data set [3] (5 mg/kg i.p. once a day for 6 days, beginning 20.4 g) was found to be 21.1 g; in data set [3] (10 mg/kg i.p. once a day for 6 days, beginning 20.4 g) it was 19.7 g; in data set [3] (15 mg/kg i.p. once a day for 6 days, beginning 20.5 g), 21.2 g. Also, the “Tumor weight” value in the data set on Sarcoma 180 cell (setting [7]) stood at 0.30 ± 0.23 g; in the data set on Sarcoma 180 cell (setting [8]), 0.26 ± 0.11 g; with Sarcoma 180 cell (setting [9]) it was 0.28 ± 0.13 g. For the same molecule, the Inhibition % with Sarcoma 180 cell (setting [7]) was found to be 64.3%; in the data set with Sarcoma 180 cell (setting [8]), 69.0%; in the data set with Sarcoma 180 cell (setting [9]), 66.7%.
Take `COC(=O)C1=CC[C@@]23CC[C@@H]([C@@](C)(/C=C/C=C(\C)C(=O)O)OC2=O)[C@@]3(OC(C)=O)CC1` [Pseudolarix acid-B, pseudolaric acid B, reference compound]: the “MIC (μg/ml) (Trichophyton rubrum)” value in the data set on Trichophyton rubrum was determined as 50.0 µg/mL (≈ 116 µM). The IC50 worked out at 28 nM in data set [1] (A549 cells, SRB, 72 hr, read-out: IC50); 0.83 nM in data set [2] (P388 cells, MTT, 48 hr, read-out: IC50); 80 nM in data set [4] (HMEC cells, SRB, 72 hr, read-out: IC50). Moreover, the “MIC (μg/ml) (Candida albicans)” value in the data set with Candida albicans was found to be 12.5 µg/mL (≈ 28.9 µM).
As for `CC[C@@]1(O)C(=O)OCc2c1cc1n(c2=O)Cc2cc3cc(O)ccc3nc2-1` [hydroxycamptothecin], in data set [4] (Homo sapiens, HMEC, 72 h), the midpoint of inhibition, the IC50, lay at 470 nM.
